Results on 23 compounds are retold here after patent US12600728B2, “Interleukin-17 inhibitors” (priority 2020, dated 2026).

Experiment [1] has as its target recombinant human IL-17AA (Homo sapiens, UniProt Q16552). Kind of experiment: IL-6 release from NHDF cells, IL-17AA plus TNF-α stimulation. The experiment is classed as cell-based. Particulars: 24 hours, IL-6 by ELISA. In short, it runs like this: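 IL-17-specific IL-6 release from NHDF cells adhered overnight; compounds pre-incubated 30 min at room temperature with human IL-17AA plus TNF-α, then 24 h on cells at 37° C. Final DMSO 0.1% or plasma 20%; IL-6 by ELISA (450 nm). TNF-α-only IL-6 subtracted before IC50 fit.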
A general note: An ELISA detects its analyte on a solid surface through an enzyme-linked reagent.

For experiment [2], the target named is biotinylated human IL-17A / AF647-labeled human IL-17RA (Homo sapiens, UniProt Q16552). Briefly: Human IL-17A×IL-17RA TR-FRET assay. The experiment is classed as binding. An outline of the steps:
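Compounds tested in duplicate at each concentration; neutral controls contain all components with DMSO in place of compound.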
For orientation: In TR-FRET formats the signal depends on donor and acceptor labels being close together.

The mark [3] stands for this setting: NHDF cells, IL-17AA 30 pM plus TNF-α 6 pM, read-out: IL17AA + TNF IC50 IL-6.
The mark [4] stands for this setting: TR-FRET, biotinylated human IL-17A 5 nM, AF647-labeled human IL-17RA 30 nM, read-out: IL17AA FRET/ IL17Rawt IC50.
[5] abbreviates: NHDF cells, IL-17AA 30 pM + TNF-α 6 pM, read-out: IL17AA + TNF IC50 IL-6.
Where [6] appears, read: TR-FRET, 5 nM IL-17A, 30 nM IL-17RA, read-out: IL17AA FRET/ IL17Rawt IC50.
Where [7] appears, read: IL17AA + TNF IC50 IL-6, NHDF cells, IL-17AA 30 pM + TNF-α 6 pM.
Where [8] appears, read: IL17AA FRET/ IL17Rawt IC50, TR-FRET, 5 nM IL-17A, 30 nM IL-17RA.

Read-outs that look alike come from different tables or passages of the source.

Chain of biotinylated human IL-17A / AF647-labeled human IL-17RA (Q16552 24-155): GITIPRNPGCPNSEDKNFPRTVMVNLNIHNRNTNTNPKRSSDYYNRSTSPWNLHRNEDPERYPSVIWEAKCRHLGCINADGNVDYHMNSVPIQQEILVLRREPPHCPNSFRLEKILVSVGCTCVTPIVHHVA
Chain of recombinant human IL-17AA (Q16552 24-155): as above

For the compound `Cc1c(-c2ccc(NC(=O)[C@@H](NC(=O)c3ccc4n3CCN(C)C4)C3CCCCCC3)cc2F)c(Cl)cc[n+]1[O-]` [Example 122, 4-chloro-3-(4-((S)-2-cycloheptyl-2-(2-methyl-1,2,3,4-tetrahydropyrrolo[1,2-a]pyrazine-6-carboxamido)acetamido)-2-fluorophenyl)-2-methylpyridine 1-oxide], the IC50 was 9 nM in experiment [1] (setting [3]) and 128 nM in experiment [2] (setting [4]).
Take `Cc1nocc1C(=O)NC(C(=O)Nc1ccc(-c2c(Cl)cc[n+]([O-])c2C)cc1)C1CC2CC2C1` (single isomer, unassigned) [Example 198]: the IC50 in experiment [1] (setting [5]) is 94 nM; in experiment [2] (setting [6]), 222 nM.
For the compound `Cc1c[n+]([O-])cc(C)c1-c1ccc(NC(=O)[C@@H](NC(=O)c2ccnn2C2CCC2)C2CCCCCC2)cc1` [Example 102, (S)-4-(4-(2-(1-cyclobutyl-1H-pyrazole-5-carboxamido)-2-cycloheptylacetamido)phenyl)-3,5-dimethylpyridine 1-oxide], the IC50 came to 17 nM in experiment [1] (setting [3]) and 123 nM in experiment [2] (setting [4]).
Consider `Cc1cc[n+]([O-])c(Cl)c1-c1ccc(NC(=O)[C@@H](NC(=O)c2ccnn2C)C2CCCCC2)cc1` [Example 89, (S)-2-chloro-3-(4-(2-cyclohexyl-2-(1-methyl-1H-pyrazole-5-carboxamido)acetamido)phenyl)-4-methylpyridine 1-oxide], for which the values for the IC50 in experiment [1] (setting [3]) and in experiment [2] (setting [4]) were 83 nM and 286 nM, respectively.
As to `Cc1cc[n+]([O-])c(C)c1-c1ccc(NC(=O)C(NC(=O)c2ccnn2C)C2C=C(F)CCC2)cc1` (stereo not shown) [Example 219, 3-(4-(2-(3-fluorocyclohex-2-en-1-yl)-2-(1-methyl-1H-pyrazole-5-carboxamido)acetamido)phenyl)-2,4-dimethylpyridine 1-oxide], the figures for the IC50 in experiment [1] (setting [7]) and in experiment [2] (setting [8]) were 142 nM and 2290 nM, respectively.
In the case of `Cc1c(-c2ccc(NC(=O)[C@@H](NC(=O)c3ccnn3C)C3CCCCC3)cc2)c(C(C)C)cc[n+]1[O-]` [Example 224, (S)-3-(4-(2-cyclohexyl-2-(1-methyl-1H-pyrazole-5-carboxamido)acetamido)phenyl)-4-isopropyl-2-methylpyridine 1-oxide], the IC50 is 108 nM in experiment [1] (setting [5]) and 2190 nM in experiment [2] (setting [6]).
On to `CCc1nocc1C(=O)NC(C(=O)Nc1ccc(-c2c(Cl)cc[n+]([O-])c2C)cc1)C1CCC(F)(F)CC1` (stereo not shown) [Example 51, 4-chloro-3-(4-(2-(4,4-difluorocyclohexyl)-2-(3-ethylisoxazole-4-carboxamido)acetamido)phenyl)-2-methylpyridine 1-oxide], for which the IC50 in experiment [1] (setting [3]) worked out at 62 nM; in experiment [2] (setting [4]) it was 66 nM.
As to `CC(=O)N1CCn2c(ccc2C(=O)N[C@H](C(=O)Nc2ccc(-c3c(C)cc[n+]([O-])c3C)cc2)C2CCCCCC2)C1` [Example 188, (S)-3-(4-(2-(2-acetyl-1,2,3,4-tetrahydropyrrolo[1,2-a]pyrazine-6-carboxamido)-2-cycloheptylacetamido)phenyl)-2,4-dimethylpyridine 1-oxide], the IC50 came to 6.05 nM in experiment [1] (setting [5]) and 104 nM in experiment [2] (setting [6]).
The like results for `Cc1c(-c2ccc(NC(=O)[C@@H](NC(=O)c3ccc4n3CCNC4)C3CCC(F)(F)CC3)cc2)c(Cl)cc[n+]1[O-]` [Example 196, (S)-4-chloro-3-(4-(2-(4,4-difluorocyclohexyl)-2-(1,2,3,4-tetrahydropyrrolo[1,2-a]pyrazine-6-carboxamido)acetamido)phenyl)-2-methylpyridine 1-oxide] were, in that order, 12.6 nM and 181 nM.
`Cc1cc[n+]([O-])c(C)c1-c1ccc(NC(=O)[C@@H](NC(=O)c2ccnn2C)C(c2ccccc2)c2ccccc2)cc1` [Example 193, (S)-2,4-dimethyl-3-(4-(2-(1-methyl-1H-pyrazole-5-carboxamido)-3,3-diphenylpropanamido)phenyl)pyridine 1-oxide]: the IC50 came out at 47 nM in experiment [1] (setting [5]) and 97.3 nM in experiment [2] (setting [6]).
In the case of `Cc1nocc1C(=O)N[C@H](C(=O)Nc1ccc(-c2c(Cl)cc[n+]([O-])c2C)c(F)c1)C1CCCCC1` [Example 14, 4-chloro-3-(4-((S)-2-cyclohexyl-2-(3-methylisoxazole-4-carboxamido)acetamido)-2-fluorophenyl)-2-methylpyridine 1-oxide], the results for the IC50 in experiment [1] (setting [3]) and in experiment [2] (setting [4]) were 9 nM and 24 nM, respectively.
Take `CC(=O)N1CCn2c(ccc2C(=O)N[C@H](C(=O)Nc2ccc(-c3c(C)cc[n+]([O-])c3C)cc2F)C2CCCCCC2)C1` [Example 195, (S)-3-(4-(2-(2-acetyl-1,2,3,4-tetrahydropyrrolo[1,2-a]pyrazine-6-carboxamido)-2-cycloheptylacetamido)-3-fluorophenyl)-2,4-dimethylpyridine 1-oxide]: the IC50 in experiment [1] (setting [5]) was determined as 28.5 nM; in experiment [2] (setting [6]) it was 178 nM.
In the same order, the values of `CC(=O)N1CCn2ccc(C(=O)N[C@H](C(=O)Nc3ccc(-c4c(C)cc[n+]([O-])c4C)cc3)C3CCCCCC3)c2C1` [Example 185, (S)-3-(4-(2-(2-acetyl-1,2,3,4-tetrahydropyrrolo[1,2-a]pyrazine-8-carboxamido)-2-cycloheptylacetamido)phenyl)-2,4-dimethylpyridine 1-oxide] are 9.75 nM and 77.1 nM.
`CCc1nocc1C(=O)N[C@H](C(=O)Nc1ccc(-c2c(C(F)(F)F)cc[n+]([O-])c2C)cc1)[C@H]1CCCC(F)(F)C1` [Example 26, 3-(4-((S)-2-((S)-3,3-difluorocyclohexyl)-2-(3-ethylisoxazole-4-carboxamido)acetamido)phenyl)-2-methyl-4-(trifluoromethyl)pyridine 1-oxide]: the IC50 in experiment [1] (setting [3]) came out at 14 nM; in experiment [2] (setting [4]), 44 nM.
On to `Cc1nocc1C(=O)N[C@H](C(=O)Nc1ccc(-c2c(C(F)(F)F)cc[n+]([O-])c2C)cc1)[C@H]1CCCC(F)(F)C1` [Example 9, 3-(4-((S)-2-((S)-3,3-difluorocyclohexyl)-2-(3-methylisoxazole-4-carboxamido)acetamido)phenyl)-2-methyl-4-(trifluoromethyl)pyridine 1-oxide], for which the IC50 in experiment [1] (setting [3]) amounted to 4 nM; in experiment [2] (setting [4]), 60 nM.
As to `CCn1nccc1C(=O)N[C@H](C(=O)Nc1ccc(-c2c(C)cc[n+]([O-])c2C)cc1)C1CCC(F)(F)CC1` [Example 159, (S)-3-(4-(2-(4,4-difluorocyclohexyl)-2-(1-ethyl-1H-pyrazole-5-carboxamido)acetamido)phenyl)-2,4-dimethylpyridine 1-oxide], the IC50 was found to be 31 nM in experiment [1] (setting [7]) and 100 nM in experiment [2] (setting [8]).
On to `Cc1c(-c2ccc(NC(=O)[C@@H](NC(=O)c3ccnn3C(C)C)C3CCCCCC3)cc2)c(Cl)cc[n+]1[O-]` [Example 48, (S)-4-chloro-3-(4-(2-cycloheptyl-2-(1-isopropyl-1H-pyrazole-5-carboxamido)acetamido)phenyl)-2-methylpyridine 1-oxide], for which the IC50 in experiment [1] (setting [3]) is 1 nM; in experiment [2] (setting [4]) it was 12 nM.
Turning to `Cc1cc[n+]([O-])c(C)c1-c1ccc(NC(=O)[C@@H](NC(=O)c2ccnn2C)C2CCC(F)(F)CC2)cc1` [Example 32, (S)-3-(4-(2-(4,4-difluorocyclohexyl)-2-(1-methyl-1H-pyrazole-5-carboxamido)acetamido)phenyl)-2,4-dimethylpyridine 1-oxide], the values for the IC50 in experiment [1] (setting [3]) and in experiment [2] (setting [4]) were 50 nM and 286 nM, respectively.
Take `Cc1cc[n+]([O-])c(C)c1-c1ccc(NC(=O)C(NC(=O)c2ccc3n2CCNC3)C2CC3CC3C2)cc1` [Example 204, 3-(4-((S)-2-((1R,3s,5S)-bicyclo[3.1.0]hexan-3-yl)-2-(1,2,3,4-tetrahydropyrrolo[1,2-a]pyrazine-6-carboxamido)acetamido)phenyl)-2,4-dimethylpyridine 1-oxide]: the values for the IC50 in experiment [1] (setting [5]) and in experiment [2] (setting [6]) were 95 nM and 278 nM, respectively.
On to `CCc1nocc1C(=O)N[C@H](C(=O)Nc1ccc(-c2c(C)cc[n+]([O-])c2C)cc1)C1CCC(F)(F)C1` (mixture of isomers) [Example 86, 3-(4-((2S)-2-(3,3-difluorocyclopentyl)-2-(3-ethylisoxazole-4-carboxamido)acetamido)phenyl)-2,4-dimethylpyridine 1-oxide], for which the IC50 in experiment [1] (setting [3]) turned out to be 232 nM; in experiment [2] (setting [4]), 119 nM.
Take `Cc1c(-c2ccc(NC(=O)[C@@H](NC(=O)c3ccnn3CCN(C)C)C3CCCCC3)cc2F)c(Cl)cc[n+]1[O-]` [Example 77, 4-chloro-3-(4-((S)-2-cyclohexyl-2-(1-(2-(dimethylamino)ethyl)-1H-pyrazole-5-carboxamido)acetamido)-2-fluorophenyl)-2-methylpyridine 1-oxide]: the results for the IC50 in experiment [1] (setting [3]) and in experiment [2] (setting [4]) were 151 nM and 436 nM, respectively.
With `Cc1c(-c2ccc(NC(=O)C(NC(=O)c3ccnn3C)C3CCC(C(F)(F)F)CC3)cc2)c(Cl)cc[n+]1[O-]` [Example 18, 4-chloro-2-methyl-3-(4-((S)-2-(1-methyl-1H-pyrazole-5-carboxamido)-2-((1r,4S)-4-(trifluoromethyl)cyclohexyl)acetamido)phenyl)pyridine 1-oxide], the IC50 is 28 nM in experiment [1] (setting [3]) and 25 nM in experiment [2] (setting [4]).
Regarding `CCn1nccc1C(=O)N[C@H](C(=O)Nc1ccc(-c2c(C(F)(F)F)cc[n+]([O-])c2C)cc1)C1CCCC1` [Example 21, (S)-3-(4-(2-cyclopentyl-2-(1-ethyl-1H-pyrazole-5-carboxamido)acetamido)phenyl)-2-methyl-4-(trifluoromethyl)pyridine 1-oxide], the figures for the IC50 in experiment [1] (setting [3]) and in experiment [2] (setting [4]) were 31 nM and 39 nM, respectively.
